# Assay results from the kinase profiling compilation of Christmann-Franck et al. (2016).
# Legend:
# Assay in all cases: KINOMEscan competition binding
# Conditions in all cases: compound 10.0 µM
# PTK2B (human) = PTK2B (human) (UniProt Q14289)
# PHKG2 (human) = PHKG2 (human) (UniProt P15735)
# CDK4 CCND3 (human) = CDK4 CCND3 (human) (UniProt P11802+P30281)
# MST1R (human) = MST1R (human) (UniProt Q04912)
# EIF2AK2 (human) = EIF2AK2 (human) (UniProt P19525)
# CAMK2G (human) = CAMK2G (human) (UniProt Q13555)
# Sequence of CAMK2G (human) (Q13555 whole entry, looked up): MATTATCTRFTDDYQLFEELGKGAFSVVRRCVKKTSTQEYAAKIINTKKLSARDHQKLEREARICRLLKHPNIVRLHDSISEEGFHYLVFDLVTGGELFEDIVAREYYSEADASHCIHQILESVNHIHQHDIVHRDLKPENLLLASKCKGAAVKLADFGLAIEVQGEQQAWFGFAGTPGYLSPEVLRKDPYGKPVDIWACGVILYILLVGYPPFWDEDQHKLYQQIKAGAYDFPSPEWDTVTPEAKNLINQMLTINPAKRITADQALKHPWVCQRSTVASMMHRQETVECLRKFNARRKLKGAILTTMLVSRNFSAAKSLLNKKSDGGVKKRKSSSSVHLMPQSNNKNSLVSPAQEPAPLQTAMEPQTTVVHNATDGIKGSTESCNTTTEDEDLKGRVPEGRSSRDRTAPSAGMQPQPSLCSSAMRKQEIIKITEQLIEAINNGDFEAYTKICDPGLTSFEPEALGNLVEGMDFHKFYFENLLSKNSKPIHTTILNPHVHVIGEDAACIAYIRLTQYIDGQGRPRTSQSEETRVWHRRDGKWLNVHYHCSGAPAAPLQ
# CDK2 (human) = CDK2 (human) (UniProt P24941)
# MAPK6 (human) = MAPK6 (human) (UniProt Q16659)
# RPS6KA6 KD1 (human) = RPS6KA6 KD1 (human) (UniProt Q9UK32)
# CSNK1A1 (human) = CSNK1A1 (human) (UniProt P48729)
# YES1 (human) = YES1 (human) (UniProt P07947)
# LATS1 (human) = LATS1 (human) (UniProt O95835)
# Sequence of LATS1 (human) (O95835 whole entry, looked up): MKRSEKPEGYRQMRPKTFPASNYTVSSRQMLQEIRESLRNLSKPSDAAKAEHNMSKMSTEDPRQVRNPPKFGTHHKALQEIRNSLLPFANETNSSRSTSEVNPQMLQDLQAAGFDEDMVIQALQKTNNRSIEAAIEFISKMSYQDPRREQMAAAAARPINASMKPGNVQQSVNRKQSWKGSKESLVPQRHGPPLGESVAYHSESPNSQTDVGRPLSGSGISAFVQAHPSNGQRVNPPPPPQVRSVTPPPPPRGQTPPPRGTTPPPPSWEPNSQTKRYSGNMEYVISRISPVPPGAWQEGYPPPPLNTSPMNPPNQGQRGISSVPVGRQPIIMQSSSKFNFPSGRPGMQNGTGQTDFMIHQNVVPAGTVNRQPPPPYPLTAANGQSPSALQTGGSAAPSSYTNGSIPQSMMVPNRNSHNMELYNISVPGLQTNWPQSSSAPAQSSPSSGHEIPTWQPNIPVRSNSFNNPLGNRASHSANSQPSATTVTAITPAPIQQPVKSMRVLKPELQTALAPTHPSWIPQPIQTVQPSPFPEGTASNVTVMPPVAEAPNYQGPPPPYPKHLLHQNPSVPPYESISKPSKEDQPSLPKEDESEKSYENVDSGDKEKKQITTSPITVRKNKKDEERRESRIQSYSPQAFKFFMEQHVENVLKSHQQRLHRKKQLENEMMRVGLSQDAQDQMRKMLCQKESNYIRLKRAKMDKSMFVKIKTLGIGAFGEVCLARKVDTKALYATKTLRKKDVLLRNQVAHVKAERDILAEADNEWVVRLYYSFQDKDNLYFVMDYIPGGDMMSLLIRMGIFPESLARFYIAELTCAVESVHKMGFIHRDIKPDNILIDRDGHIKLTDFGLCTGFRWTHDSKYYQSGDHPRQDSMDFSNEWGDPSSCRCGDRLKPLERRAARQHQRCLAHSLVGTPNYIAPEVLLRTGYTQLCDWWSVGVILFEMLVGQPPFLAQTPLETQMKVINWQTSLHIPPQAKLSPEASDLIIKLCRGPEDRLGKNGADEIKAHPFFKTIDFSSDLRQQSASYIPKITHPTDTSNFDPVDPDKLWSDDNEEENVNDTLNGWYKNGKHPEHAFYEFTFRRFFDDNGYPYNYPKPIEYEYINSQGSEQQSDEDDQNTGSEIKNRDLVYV
# NEK9 (human) = NEK9 (human) (UniProt Q8TD19)
# PIP4K2B (human) = PIP4K2B (human) (UniProt P78356)
# ABL1 (human) = ABL1 (human) (UniProt P00519)
# AURKA (human) = AURKA (human) (UniProt O14965)
# Sequence of AURKA (human) (O14965 whole entry, looked up): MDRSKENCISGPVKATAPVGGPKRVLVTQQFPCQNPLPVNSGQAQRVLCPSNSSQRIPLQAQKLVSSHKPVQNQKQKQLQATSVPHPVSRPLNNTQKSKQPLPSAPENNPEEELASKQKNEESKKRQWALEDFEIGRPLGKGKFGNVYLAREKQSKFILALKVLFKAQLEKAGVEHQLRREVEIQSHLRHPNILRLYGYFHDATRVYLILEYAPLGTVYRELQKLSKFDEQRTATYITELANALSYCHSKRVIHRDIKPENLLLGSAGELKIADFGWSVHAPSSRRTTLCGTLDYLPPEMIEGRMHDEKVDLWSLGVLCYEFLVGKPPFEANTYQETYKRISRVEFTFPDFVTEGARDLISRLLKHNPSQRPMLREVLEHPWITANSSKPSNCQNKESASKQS
# ACVRL1 (human) = ACVRL1 (human) (UniProt P37023)
# SLK (human) = SLK (human) (UniProt Q9H2G2)
# [1] = target: TYK2 JH1 catalytic (human) (UniProt P29597)
# CDK3 (human) = CDK3 (human) (UniProt Q00526)
# [2] = test system: EGFR (human), P00533 [T790M]
# MKNK1 (human) = MKNK1 (human) (UniProt Q9BUB5)
# Sequence of MKNK1 (human) (Q9BUB5 whole entry, looked up): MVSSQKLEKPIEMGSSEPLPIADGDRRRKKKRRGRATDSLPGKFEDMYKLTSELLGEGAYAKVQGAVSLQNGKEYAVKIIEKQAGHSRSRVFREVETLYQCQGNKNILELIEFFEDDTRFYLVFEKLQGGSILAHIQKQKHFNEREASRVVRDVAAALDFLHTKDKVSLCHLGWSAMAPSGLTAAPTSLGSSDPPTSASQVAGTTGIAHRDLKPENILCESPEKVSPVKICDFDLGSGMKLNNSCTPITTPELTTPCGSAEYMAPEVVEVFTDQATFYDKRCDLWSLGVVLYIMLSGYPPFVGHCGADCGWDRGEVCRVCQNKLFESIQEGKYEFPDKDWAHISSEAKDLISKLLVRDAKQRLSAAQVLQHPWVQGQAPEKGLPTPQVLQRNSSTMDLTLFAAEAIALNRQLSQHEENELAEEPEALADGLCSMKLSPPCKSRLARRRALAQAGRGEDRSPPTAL
# MAP2K6 (human) = MAP2K6 (human) (UniProt P52564)
# CPK1 (P.falciparum) = test system: CPK1 (P.falciparum)
# RPS6KA4 KD2 (human) = RPS6KA4 KD2 (human) (UniProt O75676)
# Sequence of RPS6KA4 KD2 (human) (O75676 whole entry, looked up): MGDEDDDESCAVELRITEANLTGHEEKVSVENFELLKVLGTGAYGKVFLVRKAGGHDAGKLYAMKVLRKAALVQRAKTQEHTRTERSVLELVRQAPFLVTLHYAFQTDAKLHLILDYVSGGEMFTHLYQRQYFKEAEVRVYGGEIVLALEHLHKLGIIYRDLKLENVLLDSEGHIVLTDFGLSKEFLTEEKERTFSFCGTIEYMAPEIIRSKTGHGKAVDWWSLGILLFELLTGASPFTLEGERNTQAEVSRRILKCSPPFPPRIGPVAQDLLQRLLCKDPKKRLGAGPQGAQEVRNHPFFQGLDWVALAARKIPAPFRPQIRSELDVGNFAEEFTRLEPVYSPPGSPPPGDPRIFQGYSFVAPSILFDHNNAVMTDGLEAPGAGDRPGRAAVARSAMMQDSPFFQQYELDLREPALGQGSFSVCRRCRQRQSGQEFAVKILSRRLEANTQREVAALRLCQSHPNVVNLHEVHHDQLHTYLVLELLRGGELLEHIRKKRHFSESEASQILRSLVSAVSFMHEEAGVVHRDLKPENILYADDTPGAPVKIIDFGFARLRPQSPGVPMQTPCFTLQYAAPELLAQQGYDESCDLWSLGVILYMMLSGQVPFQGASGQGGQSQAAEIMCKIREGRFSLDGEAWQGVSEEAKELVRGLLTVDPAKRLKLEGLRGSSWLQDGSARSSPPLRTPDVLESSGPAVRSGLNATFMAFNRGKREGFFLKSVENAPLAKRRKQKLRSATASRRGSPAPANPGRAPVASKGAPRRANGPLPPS
# RIOK1 (human) = RIOK1 (human) (UniProt Q9BRS2)
# Sequence of RIOK1 (human) (Q9BRS2 whole entry, looked up): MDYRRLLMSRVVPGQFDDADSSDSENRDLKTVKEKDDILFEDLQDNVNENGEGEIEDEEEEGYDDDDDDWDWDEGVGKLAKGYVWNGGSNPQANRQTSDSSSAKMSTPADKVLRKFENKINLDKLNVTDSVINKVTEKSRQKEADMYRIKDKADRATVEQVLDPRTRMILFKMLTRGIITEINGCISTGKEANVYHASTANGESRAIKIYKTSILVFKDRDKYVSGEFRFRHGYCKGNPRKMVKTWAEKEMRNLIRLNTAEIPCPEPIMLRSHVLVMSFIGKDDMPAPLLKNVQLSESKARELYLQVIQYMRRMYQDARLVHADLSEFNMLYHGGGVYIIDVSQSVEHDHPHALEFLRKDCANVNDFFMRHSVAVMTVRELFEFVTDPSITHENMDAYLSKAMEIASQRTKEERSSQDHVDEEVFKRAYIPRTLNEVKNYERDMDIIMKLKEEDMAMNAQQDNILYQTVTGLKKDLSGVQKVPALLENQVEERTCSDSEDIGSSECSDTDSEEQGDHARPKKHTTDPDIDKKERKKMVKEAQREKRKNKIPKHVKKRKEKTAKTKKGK
# RPS6KA2 KD2 (human) = RPS6KA2 KD2 (human) (UniProt Q15349)
# PHKG1 (human) = PHKG1 (human) (UniProt Q16816)
# TEC (human) = TEC (human) (UniProt P42680)
# Sequence of TEC (human) (P42680 whole entry, looked up): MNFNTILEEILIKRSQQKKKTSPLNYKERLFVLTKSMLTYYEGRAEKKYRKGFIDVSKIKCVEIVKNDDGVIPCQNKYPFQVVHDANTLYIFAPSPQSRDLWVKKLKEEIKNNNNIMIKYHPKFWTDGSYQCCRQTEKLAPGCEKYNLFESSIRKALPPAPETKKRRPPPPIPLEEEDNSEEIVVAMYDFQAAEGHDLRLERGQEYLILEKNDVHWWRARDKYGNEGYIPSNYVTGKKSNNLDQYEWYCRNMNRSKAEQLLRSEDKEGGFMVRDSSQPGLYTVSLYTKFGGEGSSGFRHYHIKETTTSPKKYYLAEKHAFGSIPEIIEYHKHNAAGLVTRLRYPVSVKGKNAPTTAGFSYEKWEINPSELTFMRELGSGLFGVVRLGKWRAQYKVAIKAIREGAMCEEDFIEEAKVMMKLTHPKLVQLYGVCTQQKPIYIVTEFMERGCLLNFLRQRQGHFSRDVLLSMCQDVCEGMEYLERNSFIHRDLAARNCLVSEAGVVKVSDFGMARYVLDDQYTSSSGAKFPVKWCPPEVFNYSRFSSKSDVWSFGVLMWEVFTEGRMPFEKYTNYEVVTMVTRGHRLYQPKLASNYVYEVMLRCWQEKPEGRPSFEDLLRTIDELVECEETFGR
# MAP3K12 (human) = MAP3K12 (human) (UniProt Q12852)
# MAP2K5 (human) = MAP2K5 (human) (UniProt Q13163)
# ULK2 (human) = ULK2 (human) (UniProt Q8IYT8)
# TSSK1B (human) = TSSK1B (human) (UniProt Q9BXA7)
# [3] = test system: ABL1 (human), P00519 [H396P]
# CIT (human) = CIT (human) (UniProt O14578)
# RPS6KA6 KD2 (human) = RPS6KA6 KD2 (human) (UniProt Q9UK32)
# Sequence of PHKG2 (human) (P15735 whole entry, looked up): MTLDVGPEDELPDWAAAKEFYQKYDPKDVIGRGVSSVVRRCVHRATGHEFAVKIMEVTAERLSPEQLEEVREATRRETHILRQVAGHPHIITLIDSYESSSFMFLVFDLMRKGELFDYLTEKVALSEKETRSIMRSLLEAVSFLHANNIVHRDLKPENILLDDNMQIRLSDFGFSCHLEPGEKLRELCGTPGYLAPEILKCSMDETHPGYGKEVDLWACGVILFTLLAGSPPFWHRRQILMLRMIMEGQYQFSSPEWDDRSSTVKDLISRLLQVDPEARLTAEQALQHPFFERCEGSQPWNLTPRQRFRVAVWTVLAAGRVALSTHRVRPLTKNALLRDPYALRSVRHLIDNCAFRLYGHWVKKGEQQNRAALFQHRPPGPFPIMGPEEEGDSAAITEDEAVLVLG
SMILES,"kinase still bound, per cent of control (PTK2B (human)) [%]","kinase still bound, per cent of control (PHKG2 (human)) [%]","kinase still bound, per cent of control (MST1R (human)) [%]","kinase still bound, per cent of control (EIF2AK2 (human)) [%]","kinase still bound, per cent of control (CAMK2G (human)) [%]","kinase still bound, per cent of control (CDK2 (human)) [%]","kinase still bound, per cent of control (MAPK6 (human)) [%]","kinase still bound, per cent of control (RPS6KA6 KD1 (human)) [%]","kinase still bound, per cent of control (YES1 (human)) [%]","kinase still bound, per cent of control (LATS1 (human)) [%]","kinase still bound, per cent of control (NEK9 (human)) [%]","kinase still bound, per cent of control (PIP4K2B (human)) [%]","kinase still bound, per cent of control (ABL1 (human)) [%]","kinase still bound, per cent of control (AURKA (human)) [%]","kinase still bound, per cent of control (ACVRL1 (human)) [%]","kinase still bound, per cent of control (SLK (human)) [%]","kinase still bound, per cent of control [1] [%]","kinase still bound, per cent of control (CDK3 (human)) [%]","kinase still bound, per cent of control (MKNK1 (human)) [%]","kinase still bound, per cent of control (MAP2K6 (human)) [%]",other results
COc1cc2ncn(-c3cc(OCc4ccccc4C(F)(F)F)c(C(N)=O)s3)c2cc1OC,72,100,100,78,83,73,64,18,97,100,48,6.6,60,100,100,0.25,59,100,88,85,"kinase still bound, per cent of control (CDK4 CCND3 (human)): 100%; kinase still bound, per cent of control (CSNK1A1 (human)): 60%; kinase still bound, per cent of control [2]: 100%; kinase still bound, per cent of control (CPK1 (P.falciparum)): 75%; kinase still bound, per cent of control (RPS6KA4 KD2 (human)): 70%; kinase still bound, per cent of control (RIOK1 (human)): 4.1%; kinase still bound, per cent of control (RPS6KA2 KD2 (human)): 74%; kinase still bound, per cent of control (PHKG1 (human)): 88%; kinase still bound, per cent of control (TEC (human)): 94%; kinase still bound, per cent of control (MAP3K12 (human)): 68%; kinase still bound, per cent of control (MAP2K5 (human)): 0.45%"
CCN(CC)CCCCNc1ncc2c(n1)N(C)C(=O)N(c1c(Cl)c(OC)cc(OC)c1Cl)C2,100,100,100,100,100,100,100,100,100,100,100,100,100,100,100,100,100,100,100,100,"kinase still bound, per cent of control (ULK2 (human)): 100%; kinase still bound, per cent of control (TSSK1B (human)): 100%; kinase still bound, per cent of control [3]: 100%; kinase still bound, per cent of control (CIT (human)): 100%; kinase still bound, per cent of control (RPS6KA6 KD2 (human)): 100%; kinase still bound, per cent of control (RPS6KA4 KD2 (human)): 100%; kinase still bound, per cent of control (RIOK1 (human)): 100%; kinase still bound, per cent of control (RPS6KA2 KD2 (human)): 100%; kinase still bound, per cent of control (PHKG1 (human)): 100%; kinase still bound, per cent of control (TEC (human)): 100%; kinase still bound, per cent of control (MAP3K12 (human)): 100%"
CNC(=O)c1ccc(Nc2cc(Nc3ccccc3S(=O)(=O)C(C)C)c3cc[nH]c3n2)nc1,0.1,100,100,100,100,100,100,29,1.6,100,100,3.8,11,2.7,100,0,0.25,100,100,29,"kinase still bound, per cent of control (ULK2 (human)): 9.1%; kinase still bound, per cent of control (TSSK1B (human)): 100%; kinase still bound, per cent of control [3]: 10%; kinase still bound, per cent of control (CIT (human)): 100%; kinase still bound, per cent of control (RPS6KA6 KD2 (human)): 100%; kinase still bound, per cent of control (RPS6KA4 KD2 (human)): 100%; kinase still bound, per cent of control (RIOK1 (human)): 2%; kinase still bound, per cent of control (RPS6KA2 KD2 (human)): 100%; kinase still bound, per cent of control (PHKG1 (human)): 100%; kinase still bound, per cent of control (TEC (human)): 2.6%; kinase still bound, per cent of control (MAP3K12 (human)): 0.4%"
